Legend:
Assay in all cases: radiometric filter-binding kinase assay, Kinase HotSpot
Conditions in all cases: compound 0.5 µM; ATP 10 µM
CSNK1D (human) = CSNK1D (human) (UniProt P48730)
CSNK1G3 (human) = CSNK1G3 (human) (UniProt Q9Y6M4)
PRKD3 (human) = PRKD3 (human) (UniProt O94806)
CDK2 CCNA2 (human) = CDK2 CCNA2 (human) (UniProt P24941+P20248)
STK39 (human) = STK39 (human) (UniProt Q9UEW8)
CLK1 (human) = CLK1 (human) (UniProt P49759)
TGFBR1 (human) = TGFBR1 (human) (UniProt P36897)
[1] = system: SGK1 (human), O00141 [S422D]
MAPK9 (human) = MAPK9 (human) (UniProt P45984)
GRK5 (human) = GRK5 (human) (UniProt P34947)
RPS6KA6 KD1 KD2 (human) = RPS6KA6 KD1 KD2 (human) (UniProt Q9UK32)
MAP2K1 (human) = MAP2K1 (human) (UniProt Q02750)
MYLK (human) = MYLK (human) (UniProt Q15746)
DCLK2 (human) = DCLK2 (human) (UniProt Q8N568)
MARK2 (human) = MARK2 (human) (UniProt Q7KZI7)
PKN1 (human) = PKN1 (human) (UniProt Q16512)
FRK (human) = FRK (human) (UniProt P42685)
BRSK1 (human) = BRSK1 (human) (UniProt Q8TDC3)
BLK (human) = BLK (human) (UniProt P51451)
RPS6KA1 KD1 KD2 (human) = RPS6KA1 KD1 KD2 (human) (UniProt Q15418)
CDK1 CCNB1 (human) = CDK1 CCNB1 (human) (UniProt P06493+P14635)
SLK (human) = SLK (human) (UniProt Q9H2G2)
INSR (human) = INSR (human) (UniProt P06213)
WNK3 (human) = WNK3 (human) (UniProt Q9BYP7)
[2] = biological target: TYK2 JH1 catalytic (human) (UniProt P29597)
PAK2 (human) = PAK2 (human) (UniProt Q13177)
CAMK2A (human) = CAMK2A (human) (UniProt Q9UQM7)
PRKCZ (human) = PRKCZ (human) (UniProt Q05513)
SGK3 (human) = SGK3 (human) (UniProt Q96BR1)
STK4 (human) = STK4 (human) (UniProt Q13043)
DAPK3 (human) = DAPK3 (human) (UniProt O43293)
NTRK1 (human) = NTRK1 (human) (UniProt P04629)
MAPK11 (human) = MAPK11 (human) (UniProt Q15759)
ZAP70 (human) = ZAP70 (human) (UniProt P43403)
MARK4 (human) = MARK4 (human) (UniProt Q96L34)
WEE1 (human) = WEE1 (human) (UniProt P30291)
MUSK (human) = MUSK (human) (UniProt O15146)
EPHB4 (human) = EPHB4 (human) (UniProt P54760)
TGFBR2 (human) = TGFBR2 (human) (UniProt P37173)
RPS6KB1 (human) = RPS6KB1 (human) (UniProt P23443)
FGFR1 (human) = FGFR1 (human) (UniProt P11362)
AURKA (human) = AURKA (human) (UniProt O14965)

Sequence of WNK3 (human) (Q9BYP7 whole entry, looked up): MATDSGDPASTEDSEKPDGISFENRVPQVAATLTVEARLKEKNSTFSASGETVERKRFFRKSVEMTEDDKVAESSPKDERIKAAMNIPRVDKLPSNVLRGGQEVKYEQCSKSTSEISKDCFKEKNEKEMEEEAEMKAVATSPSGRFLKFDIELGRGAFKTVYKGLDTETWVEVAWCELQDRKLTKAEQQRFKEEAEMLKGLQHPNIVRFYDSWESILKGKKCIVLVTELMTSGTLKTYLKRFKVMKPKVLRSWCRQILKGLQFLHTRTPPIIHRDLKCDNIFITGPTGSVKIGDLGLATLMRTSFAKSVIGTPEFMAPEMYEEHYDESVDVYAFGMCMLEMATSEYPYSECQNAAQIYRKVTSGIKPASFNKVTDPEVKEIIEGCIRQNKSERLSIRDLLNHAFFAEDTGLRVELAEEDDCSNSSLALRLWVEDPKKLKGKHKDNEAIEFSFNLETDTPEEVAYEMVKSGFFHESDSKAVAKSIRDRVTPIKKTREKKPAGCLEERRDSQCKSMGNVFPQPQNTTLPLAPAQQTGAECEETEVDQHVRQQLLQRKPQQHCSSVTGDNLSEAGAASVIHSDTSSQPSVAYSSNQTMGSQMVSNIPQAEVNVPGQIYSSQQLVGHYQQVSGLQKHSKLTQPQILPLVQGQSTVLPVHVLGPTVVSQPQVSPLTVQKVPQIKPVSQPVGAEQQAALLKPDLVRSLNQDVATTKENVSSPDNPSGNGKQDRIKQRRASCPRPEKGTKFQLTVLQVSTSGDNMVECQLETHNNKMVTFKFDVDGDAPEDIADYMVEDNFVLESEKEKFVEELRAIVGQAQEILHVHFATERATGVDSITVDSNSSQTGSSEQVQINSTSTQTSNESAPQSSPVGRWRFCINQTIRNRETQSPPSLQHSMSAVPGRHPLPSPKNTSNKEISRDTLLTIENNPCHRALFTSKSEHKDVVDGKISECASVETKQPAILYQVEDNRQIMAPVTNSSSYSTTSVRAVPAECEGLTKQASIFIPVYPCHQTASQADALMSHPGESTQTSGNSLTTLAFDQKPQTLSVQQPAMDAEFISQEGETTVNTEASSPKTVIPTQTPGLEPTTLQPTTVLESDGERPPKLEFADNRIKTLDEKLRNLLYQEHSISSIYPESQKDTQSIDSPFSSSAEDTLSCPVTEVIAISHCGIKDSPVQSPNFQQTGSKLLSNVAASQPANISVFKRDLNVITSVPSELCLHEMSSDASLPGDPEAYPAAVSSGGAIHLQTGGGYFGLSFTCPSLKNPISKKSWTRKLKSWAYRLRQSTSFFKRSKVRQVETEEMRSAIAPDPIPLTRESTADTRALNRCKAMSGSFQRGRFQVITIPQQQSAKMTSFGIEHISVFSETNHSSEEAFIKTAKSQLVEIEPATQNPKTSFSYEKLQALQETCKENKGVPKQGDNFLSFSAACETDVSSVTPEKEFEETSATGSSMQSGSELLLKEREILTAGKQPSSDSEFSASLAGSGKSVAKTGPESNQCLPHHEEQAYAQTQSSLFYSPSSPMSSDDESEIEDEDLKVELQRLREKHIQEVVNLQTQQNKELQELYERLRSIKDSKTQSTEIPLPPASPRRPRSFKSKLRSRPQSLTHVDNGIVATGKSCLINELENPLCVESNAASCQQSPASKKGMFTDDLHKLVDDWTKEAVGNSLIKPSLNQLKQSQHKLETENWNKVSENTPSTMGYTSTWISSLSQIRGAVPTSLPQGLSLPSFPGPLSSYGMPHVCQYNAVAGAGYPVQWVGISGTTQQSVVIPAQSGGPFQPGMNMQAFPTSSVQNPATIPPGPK
Sequence of WEE1 (human) (P30291 whole entry, looked up): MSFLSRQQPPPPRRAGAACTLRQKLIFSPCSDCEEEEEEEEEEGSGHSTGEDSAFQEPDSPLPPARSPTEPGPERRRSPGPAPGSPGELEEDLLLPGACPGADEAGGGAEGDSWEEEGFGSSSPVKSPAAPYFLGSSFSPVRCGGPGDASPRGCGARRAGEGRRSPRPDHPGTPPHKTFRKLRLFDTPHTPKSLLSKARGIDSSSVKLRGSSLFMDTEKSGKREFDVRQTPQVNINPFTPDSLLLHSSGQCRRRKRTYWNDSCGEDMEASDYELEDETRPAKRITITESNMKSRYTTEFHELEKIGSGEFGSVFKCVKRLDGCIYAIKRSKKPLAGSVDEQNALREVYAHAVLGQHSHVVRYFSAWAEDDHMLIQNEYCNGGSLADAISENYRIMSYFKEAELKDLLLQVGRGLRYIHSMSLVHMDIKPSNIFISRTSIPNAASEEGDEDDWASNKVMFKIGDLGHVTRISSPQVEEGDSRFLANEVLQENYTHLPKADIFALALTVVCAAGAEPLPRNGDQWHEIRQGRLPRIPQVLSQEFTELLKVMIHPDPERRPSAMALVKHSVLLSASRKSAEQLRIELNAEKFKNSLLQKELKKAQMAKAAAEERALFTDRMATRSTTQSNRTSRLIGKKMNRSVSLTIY
Sequence of PKN1 (human) (Q16512 whole entry, looked up): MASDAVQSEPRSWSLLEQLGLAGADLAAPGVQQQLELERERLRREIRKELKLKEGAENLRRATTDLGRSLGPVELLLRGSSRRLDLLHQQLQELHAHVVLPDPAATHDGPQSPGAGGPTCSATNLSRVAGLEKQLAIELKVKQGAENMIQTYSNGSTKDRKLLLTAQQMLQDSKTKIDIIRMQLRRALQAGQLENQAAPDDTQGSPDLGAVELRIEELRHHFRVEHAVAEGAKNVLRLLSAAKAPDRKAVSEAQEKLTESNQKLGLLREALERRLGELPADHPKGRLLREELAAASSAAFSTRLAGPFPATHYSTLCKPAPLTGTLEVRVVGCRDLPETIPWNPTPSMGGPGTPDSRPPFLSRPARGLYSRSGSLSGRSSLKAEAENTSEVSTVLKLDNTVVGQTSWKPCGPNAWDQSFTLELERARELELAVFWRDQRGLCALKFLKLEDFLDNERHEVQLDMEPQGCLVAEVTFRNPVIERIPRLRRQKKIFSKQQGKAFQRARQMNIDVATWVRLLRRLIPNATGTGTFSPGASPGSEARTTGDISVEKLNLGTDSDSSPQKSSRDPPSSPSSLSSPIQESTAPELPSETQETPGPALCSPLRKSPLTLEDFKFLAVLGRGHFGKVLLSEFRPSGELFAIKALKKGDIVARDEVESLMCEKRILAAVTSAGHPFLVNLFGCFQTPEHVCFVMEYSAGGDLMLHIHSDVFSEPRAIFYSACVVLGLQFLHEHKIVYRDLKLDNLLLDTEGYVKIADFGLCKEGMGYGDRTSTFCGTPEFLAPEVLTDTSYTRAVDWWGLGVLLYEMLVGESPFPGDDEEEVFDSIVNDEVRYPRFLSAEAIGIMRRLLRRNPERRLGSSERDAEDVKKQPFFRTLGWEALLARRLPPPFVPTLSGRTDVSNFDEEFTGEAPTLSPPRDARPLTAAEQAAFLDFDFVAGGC
Sequence of CLK1 (human) (P49759 whole entry, looked up): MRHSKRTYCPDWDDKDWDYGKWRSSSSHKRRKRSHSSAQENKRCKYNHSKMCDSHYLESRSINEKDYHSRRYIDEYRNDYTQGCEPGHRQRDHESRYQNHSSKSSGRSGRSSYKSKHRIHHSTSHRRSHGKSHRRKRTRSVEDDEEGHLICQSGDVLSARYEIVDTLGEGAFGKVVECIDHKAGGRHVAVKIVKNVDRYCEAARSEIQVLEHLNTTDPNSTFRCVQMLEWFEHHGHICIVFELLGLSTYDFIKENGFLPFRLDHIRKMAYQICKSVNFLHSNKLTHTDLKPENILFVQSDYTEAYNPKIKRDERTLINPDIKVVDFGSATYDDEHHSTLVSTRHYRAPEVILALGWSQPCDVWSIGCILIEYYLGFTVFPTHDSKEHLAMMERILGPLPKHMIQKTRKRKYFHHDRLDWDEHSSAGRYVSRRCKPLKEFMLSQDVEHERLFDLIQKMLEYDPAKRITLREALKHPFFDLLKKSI
Sequence of BLK (human) (P51451 whole entry, looked up): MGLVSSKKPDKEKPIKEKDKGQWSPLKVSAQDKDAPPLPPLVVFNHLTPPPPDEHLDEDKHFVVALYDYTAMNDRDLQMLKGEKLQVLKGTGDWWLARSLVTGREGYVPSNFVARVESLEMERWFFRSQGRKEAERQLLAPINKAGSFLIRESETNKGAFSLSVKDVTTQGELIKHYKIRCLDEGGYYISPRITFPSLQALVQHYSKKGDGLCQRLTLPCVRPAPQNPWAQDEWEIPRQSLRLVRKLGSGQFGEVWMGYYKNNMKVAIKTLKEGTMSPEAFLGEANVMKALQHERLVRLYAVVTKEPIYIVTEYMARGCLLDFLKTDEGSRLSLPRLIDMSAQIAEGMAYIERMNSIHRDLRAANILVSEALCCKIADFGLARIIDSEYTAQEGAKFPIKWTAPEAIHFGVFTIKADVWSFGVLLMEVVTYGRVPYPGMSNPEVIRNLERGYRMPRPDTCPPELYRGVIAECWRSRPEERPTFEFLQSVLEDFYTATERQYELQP
Sequence of CSNK1G3 (human) (Q9Y6M4 whole entry, looked up): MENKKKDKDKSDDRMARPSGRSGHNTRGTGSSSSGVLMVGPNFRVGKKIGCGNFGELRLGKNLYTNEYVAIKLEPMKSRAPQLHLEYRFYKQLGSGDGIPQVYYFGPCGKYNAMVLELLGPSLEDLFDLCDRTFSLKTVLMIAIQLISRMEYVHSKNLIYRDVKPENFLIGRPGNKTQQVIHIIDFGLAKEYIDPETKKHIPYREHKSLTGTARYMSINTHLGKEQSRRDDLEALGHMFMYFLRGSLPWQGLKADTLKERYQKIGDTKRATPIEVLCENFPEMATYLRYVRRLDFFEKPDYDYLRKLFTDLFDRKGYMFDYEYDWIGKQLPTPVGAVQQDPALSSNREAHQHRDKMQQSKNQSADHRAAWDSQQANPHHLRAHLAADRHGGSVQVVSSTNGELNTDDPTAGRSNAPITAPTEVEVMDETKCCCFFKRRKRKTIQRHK

## COc1cc2c(Nc3ccc(Br)cc3F)ncnc2cc1OCC1CCN(C)CC1
CSNK1D (human)
  residual activity: 94.4%
CSNK1G3 (human)
  residual activity: 98.1%
PRKD3 (human)
  residual activity: 91.7%
CDK2 CCNA2 (human)
  residual activity: 94.6%
STK39 (human)
  residual activity: 97.4%
CLK1 (human)
  residual activity: 105%
TGFBR1 (human)
  residual activity: 102%
[1]
  residual activity: 115%
MAPK9 (human)
  residual activity: 96.4%
GRK5 (human)
  residual activity: 95.8%
RPS6KA6 KD1 KD2 (human)
  residual activity: 99.3%
MAP2K1 (human)
  residual activity: 105%
MYLK (human)
  residual activity: 94.2%
DCLK2 (human)
  residual activity: 104%
MARK2 (human)
  residual activity: 107%
PKN1 (human)
  residual activity: 103%
FRK (human)
  residual activity: 79.5%
BRSK1 (human)
  residual activity: 97.1%
BLK (human)
  residual activity: 33.8%
RPS6KA1 KD1 KD2 (human)
  residual activity: 102%
CDK1 CCNB1 (human)
  residual activity: 102%
SLK (human)
  residual activity: 73.9%
INSR (human)
  residual activity: 102%
WNK3 (human)
  residual activity: 98%
[2]
  residual activity: 97.7%
PAK2 (human)
  residual activity: 103%
CAMK2A (human)
  residual activity: 99.8%
PRKCZ (human)
  residual activity: 97.8%
SGK3 (human)
  residual activity: 97.9%
STK4 (human)
  residual activity: 103%
DAPK3 (human)
  residual activity: 90.3%
NTRK1 (human)
  residual activity: 104%
MAPK11 (human)
  residual activity: 97.1%
ZAP70 (human)
  residual activity: 96.8%
MARK4 (human)
  residual activity: 99.4%
WEE1 (human)
  residual activity: 95.1%
MUSK (human)
  residual activity: 94.6%
EPHB4 (human)
  residual activity: 13%
TGFBR2 (human)
  residual activity: 102%

## N/C(=N\N=C/c1ccc(-c2cccc([N+](=O)[O-])c2)o1)N[N+](=O)[O-]
CSNK1D (human)
  residual activity: 99.8%
CSNK1G3 (human)
  residual activity: 86.2%
PRKD3 (human)
  residual activity: 93.9%
RPS6KB1 (human)
  residual activity: 100%
FGFR1 (human)
  residual activity: 97.6%
STK39 (human)
  residual activity: 91.8%
CLK1 (human)
  residual activity: 105%
TGFBR1 (human)
  residual activity: 96.6%
[1]
  residual activity: 92.4%
MAPK9 (human)
  residual activity: 111%
GRK5 (human)
  residual activity: 123%
RPS6KA6 KD1 KD2 (human)
  residual activity: 96.9%
MAP2K1 (human)
  residual activity: 105%
MYLK (human)
  residual activity: 92.5%
DCLK2 (human)
  residual activity: 101%
MARK2 (human)
  residual activity: 108%
PKN1 (human)
  residual activity: 93.9%
FRK (human)
  residual activity: 90.1%
BRSK1 (human)
  residual activity: 97.2%
BLK (human)
  residual activity: 102%
RPS6KA1 KD1 KD2 (human)
  residual activity: 86.3%
CDK1 CCNB1 (human)
  residual activity: 87.9%
SLK (human)
  residual activity: 101%
INSR (human)
  residual activity: 92%
WNK3 (human)
  residual activity: 96.6%
[2]
  residual activity: 110%
PAK2 (human)
  residual activity: 103%
CAMK2A (human)
  residual activity: 100%
PRKCZ (human)
  residual activity: 90.1%
SGK3 (human)
  residual activity: 107%
STK4 (human)
  residual activity: 96.5%
DAPK3 (human)
  residual activity: 103%
NTRK1 (human)
  residual activity: 96%
MAPK11 (human)
  residual activity: 96.6%
ZAP70 (human)
  residual activity: 93.1%
MARK4 (human)
  residual activity: 87.6%
WEE1 (human)
  residual activity: 100%
MUSK (human)
  residual activity: 94.4%
EPHB4 (human)
  residual activity: 91.6%
TGFBR2 (human)
  residual activity: 123%

## O=c1cc(N2CCOCC2)oc2c(-c3ccccc3)cccc12
CSNK1D (human)
  residual activity: 100%
CSNK1G3 (human)
  residual activity: 92.4%
PRKD3 (human)
  residual activity: 92.5%
CDK2 CCNA2 (human)
  residual activity: 106%
RPS6KB1 (human)
  residual activity: 101%
FGFR1 (human)
  residual activity: 96.6%
STK39 (human)
  residual activity: 78.4%
CLK1 (human)
  residual activity: 112%
TGFBR1 (human)
  residual activity: 97.5%
[1]
  residual activity: 101%
MAPK9 (human)
  residual activity: 102%
GRK5 (human)
  residual activity: 91.6%
MAP2K1 (human)
  residual activity: 88.8%
MYLK (human)
  residual activity: 97.8%
DCLK2 (human)
  residual activity: 97.6%
MARK2 (human)
  residual activity: 79.2%
PKN1 (human)
  residual activity: 109%
FRK (human)
  residual activity: 101%
BRSK1 (human)
  residual activity: 103%
BLK (human)
  residual activity: 120%
RPS6KA1 KD1 KD2 (human)
  residual activity: 97.3%
CDK1 CCNB1 (human)
  residual activity: 115%
SLK (human)
  residual activity: 102%
INSR (human)
  residual activity: 104%
WNK3 (human)
  residual activity: 89.2%
[2]
  residual activity: 103%
PAK2 (human)
  residual activity: 103%
CAMK2A (human)
  residual activity: 91.1%
SGK3 (human)
  residual activity: 109%
STK4 (human)
  residual activity: 87.8%
DAPK3 (human)
  residual activity: 96.5%
NTRK1 (human)
  residual activity: 95%
MAPK11 (human)
  residual activity: 96.2%
ZAP70 (human)
  residual activity: 102%
MARK4 (human)
  residual activity: 91.4%
WEE1 (human)
  residual activity: 76.4%
MUSK (human)
  residual activity: 102%
EPHB4 (human)
  residual activity: 99.5%
TGFBR2 (human)
  residual activity: 142%
AURKA (human)
  residual activity: 99%

## O=S(=O)(NCCNC/C=C/c1ccc(Br)cc1)c1cccc2cnccc12
CSNK1G3 (human)
  residual activity: 93.3%
PRKD3 (human)
  residual activity: 79.2%
CDK2 CCNA2 (human)
  residual activity: 105%
RPS6KB1 (human)
  residual activity: 25.6%
FGFR1 (human)
  residual activity: 87.6%
STK39 (human)
  residual activity: 103%
CLK1 (human)
  residual activity: 103%
TGFBR1 (human)
  residual activity: 97%
[1]
  residual activity: 93.2%
MAPK9 (human)
  residual activity: 93.4%
GRK5 (human)
  residual activity: 127%
RPS6KA6 KD1 KD2 (human)
  residual activity: 71.8%
MAP2K1 (human)
  residual activity: 90.5%
MYLK (human)
  residual activity: 90.8%
DCLK2 (human)
  residual activity: 90.1%
MARK2 (human)
  residual activity: 89.3%
PKN1 (human)
  residual activity: 14.3%
BRSK1 (human)
  residual activity: 92%
BLK (human)
  residual activity: 82.4%
RPS6KA1 KD1 KD2 (human)
  residual activity: 68.4%
CDK1 CCNB1 (human)
  residual activity: 93.3%
SLK (human)
  residual activity: 93%
INSR (human)
  residual activity: 94.3%
WNK3 (human)
  residual activity: 93.1%
[2]
  residual activity: 103%
PAK2 (human)
  residual activity: 78.6%
CAMK2A (human)
  residual activity: 102%
PRKCZ (human)
  residual activity: 79.8%
SGK3 (human)
  residual activity: 78.8%
STK4 (human)
  residual activity: 92.6%
DAPK3 (human)
  residual activity: 97.4%
NTRK1 (human)
  residual activity: 84.9%
MAPK11 (human)
  residual activity: 87.2%
ZAP70 (human)
  residual activity: 97.9%
MARK4 (human)
  residual activity: 94.3%
WEE1 (human)
  residual activity: 84.6%
MUSK (human)
  residual activity: 80.7%
EPHB4 (human)
  residual activity: 108%
TGFBR2 (human)
  residual activity: 92.1%
AURKA (human)
  residual activity: 104%

## CN[C@@H]1C[C@H]2O[C@@](C)([C@@H]1OC)n1c3ccccc3c3c4c(c5c6ccccc6n2c5c31)C(=O)NC4
MAP2K1 (human)
  residual activity: 3.83%
FRK (human)
  residual activity: 5.5%
INSR (human)
  residual activity: 3.14%
STK4 (human)
  residual activity: -0.197%
DAPK3 (human)
  residual activity: 1.91%
MARK4 (human)
  residual activity: -0.0069%
MUSK (human)
  residual activity: 12.2%
